Data taken from patent US7863033B2, “Lactobacillus living body activating Lactobacillus preparation and preventive or therapeutic agent for living body infection” (BHPH Company Limited, priority 2003, dated 2011).
Like-named read-outs stand apart in the source and are kept apart here.

Legend:
bacteria in plaque = experiment: Live cell counts in plaque soaked in disinfectant (Test Example 4); assay type: cell-based; conditions: 60 minutes of immersion
mouse skin wound = experiment: Recovery of mouse skin wounds with bactericidal disinfectants (Test Example 5); assay type: in vivo
conjunctivitis patients = experiment: Treatment of acute infection patients (Example 15, Comparative Example 1); conditions: epidemic conjunctivitis; method A: Ofloxacin alone
acute cystitis patients [1] = conditions: method A: Cephalexin alone; cited from earlier work
acute cystitis patients [2] = experiment: Treatment of acute infection patients (Example 15, Comparative Example 1); conditions: method A: minocycline alone 1000 mg/day for 5 days
[3] = test system: acute bronchitis patients; conditions: method A: Cefaclor alone; cited from earlier work
acute colitis patients = experiment: Treatment of acute infection patients (Example 15, Comparative Example 1); conditions: method A: Cefaclor alone 1000 mg/day for 5 days
[4] = applied every morning and night

CC(O)C(=O)O.CCOc1ccc2nc3cc(N)ccc3c(N)c2c1 [Acrinol]
survival of bacteria inside the plaque (bacteria in plaque): half of the cells surviving | Recovery: Complete recovery (coat regrown) (mouse skin wound; [4]): 40 days | Recovery: Skin close to original thickness (mouse skin wound; [4]): 15 days | Recovery: Thin skin overall (mouse skin wound; applied every morning and night to about 1 cm^2 peeled mouse skin): 5 days

CC1COc2c(N3CCN(C)CC3)c(F)cc3c(=O)c(C(=O)O)cn1c23 (stereo not drawn) [Ofloxacin]
Upset of intestinal flora (conjunctivitis patients): −

CC1=C(C(=O)O)N2C(=O)[C@@H](NC(=O)[C@H](N)c3ccccc3)[C@H]2SC1 [Cephalexin]
Upset of intestinal flora (acute cystitis patients [1]): ++

CN(C)c1ccc(O)c2c1C[C@H]1C[C@H]3[C@H](N(C)C)C(O)=C(C(N)=O)C(=O)[C@@]3(O)C(O)=C1C2=O [minocycline]
Upset of intestinal flora (acute cystitis patients [2]): ++

N[C@@H](C(=O)N[C@@H]1C(=O)N2C(C(=O)O)=C(Cl)CS[C@H]12)c1ccccc1 [Cefaclor]
Upset of intestinal flora [3]: ++ | Upset of intestinal flora (acute colitis patients): ++
